Consider 5 molecules from publication PMC3991570, “A Novel Highly Potent Autotaxin/ENPP2 Inhibitor Produces Prolonged Decreases in Plasma Lysophosphatidic Acid Formation In Vivo and Regulates Urethral Tension” (PLoS ONE, 2014).

The target in series [1] is T1, recombinant human ATX/ENPP2 (Homo sapiens, UniProt Q13822).
T1 construct: (His)6 (C); made in house; host or cells: baculovirus AcNPV; virus made in Sf9, protein expressed in expresSF+ insect cells, from culture supernatant
The experiment in a line: Choline release assay, 16:0-LPC substrate, overnight (15 h) incubation. The note with it: about 15 h incubation, read-out: In vitro IC50, Recombinant human ATX/ENPP2, Choline (O/N). The format is biochemical. The method, then:
A series of reaction mixtures containing different concentrations of the inhibitors were also tested in parallel using an overnight incubation. First, the aqueous solution of recombinant ATX/ENPP2 (final concentration 2 µg/ml) or plasma samples from various animal species (final concentration 40%) was added to the reaction mixture containing different concentrations of ATX/ENPP2 inhibitors, 1 mM 16:0-LPC, and 1% DMSO. Then, each mixture was incubated at 37°C for 15 h (primary reaction). Samples of each mixture were subjected to the secondary reaction with 10 volumes of 300 µM TOOS in 100 mM Tris-HCl solution (pH 8.5), 500 µM 4-aminoantipyrine, 600 mU/ml horseradish peroxidase, 3 U/ml choline oxidase, and 5 mM CaCl2, at 37°C for 20 min (secondary reaction). […] Measurement points of choline production were plotted against the concentration of the inhibitor and the theoretical curve to obtain the IC50 value of the inhibitor for LysoPLD activity was obtained using the Activity Base version 7.1.0.39 software from ID Business Solutions Ltd.

Series [2] has as its target T1, recombinant human ATX/ENPP2. The experiment in a line: Choline release assay, 16:0-LPC substrate, 30 min incubation. The format is biochemical. The note with it: read-out: In vitro IC50, Recombinant human ATX/ENPP2, Choline (30 min). The method, then:
In the choline release assay, a series of reaction mixtures containing different concentrations of the inhibitors were tested in parallel. Recombinant ATX/ENPP2 was dissolved in 100 mM Tris-HCl buffer (pH 9.0) containing 500 mM NaCl, 5 mM MgCl2 and 0.05% Triton X-100. First, the aqueous solution of recombinant ATX/ENPP2 (final concentration 2 µg/ml) was added to the reaction mixture containing different concentrations of the inhibitors, 1 mM 16:0-LPC, and DMSO 1%. Then, each mixture was incubated at 37°C for 30 min (primary reaction). A samples of each reaction mixture was subjected to the secondary incubation at 37°C for 30 min with 10 times the volume of 100 µM Amplex Red in 50 mM Tris-HCl buffer (pH 8.0), 1 U/ml horseradish peroxidase, 150 mU/ml choline oxidase and 5 mM CaCl2,. Fluorescence at 590 nm was measured with excitation at 544 nm and the amount of choline released in each reaction mixture was quantified based on a calibration curve created from a choline chloride standard.
(§1) Measurement points of choline production were plotted against the concentration of the inhibitor and the theoretical curve to obtain the IC50 value of the inhibitor for LysoPLD activity was obtained using the Activity Base version 7.1.0.39 software from ID Business Solutions Ltd.

For series [3] the target is unchanged. In words: FS-3 assay of LysoPLD activity (2 h). It is filed as biochemical. The note with it: synthetic fluorescent substrate FS-3, 2 h; read-out: In vitro IC50, Recombinant human ATX/ENPP2, FS-3 (2 h). The procedure:
Recombinant ATX/ENPP2 protein (2 µg/ml) and various concentrations of the inhibitors were mixed and incubated at 37°C for 2 h in 100 mM Tris-HCl buffer (pH 8.0) containing 1%DMSO, 500 mM NaCl, 5 mM MgCl2, and 0.05% Triton X-100, in the presence of a fluorescent substrate FS-3 (1 µM). After incubation, fluorescence at 520 nm with excitation at 494 nm was measured.
as §1

Series [4] deals with plasma LPA. Set-up: method as in PMID 20392816. The note with it: at 24 h after administration; cited from earlier work.
For series [5], the system named is urethane-anesthetized rats. In words: Intraurethral pressure (IUP) in urethane-anesthetized rats. The format is in vivo, rat. The method, then:
Male Crl∶CD(SD) rats (7–8 weeks old) were anesthetized by intraperitoneal administration of urethane at a dose of 1.5 g/5 ml/kg. An arterial catheter (JMS cut-down tube; C3, JMS, Japan) was inserted into the common carotid artery to monitor blood pressure. After the abdomen was opened, another catheter (inner diameter, 0.9 mm; outer diameter, 1.5 mm; Shin-Etsu Polymer, Japan) was inserted into the duodenum and held in place with a suture thread. The abdomen was then cut along the median line and the urethra was ligated in the proximity of the pubic bone. For measurement of intraurethral pressure (IUP), a urethral catheter (JMS cut-down tube; C3, JMS Inc., Japan) was inserted from the top side of the bladder through the urethra and held in place by ligation at the bladder neck. Finally, both the arterial catheter and urethral catheter were connected to a pressure transducer (Nihon Kohden, Japan), and the rat was placed on a warm mat (37°C). Blood pressure and IUP were measured by a recorder (Graphtec, Japan) using a torsion-pressure amplifier (Nihon Kohden, Japan).
ONO-8430506 was dissolved in an aqueous solution containing 1.1 times the equivalent amount of NaOH. After confirming stabilization of IUP, rats received either the inhibitor or tamsulosin at a dose of 2 ml/kg in an aqueous solution through the duodenal catheter. IUP and blood pressure were measured continuously during the 20-min after administration of either the inhibitor or tamsulosin. At the end of the 20-min period, heparinized blood was collected from the jugular vein of the rat to prepare a plasma sample. Rats were then euthanized by intravenous administration of 1 ml of pentobarbital (Somunopentyl, Kyoritsu Seiyaku Corporation). Postmortem IUP was measured until the lowest IUP value was reached and stabilized. The maximum percent decreases relative to the difference between baseline IUP and postmortem IUP was calculated to measure the change from baseline in IUP during the 20-min after drug administration.

Series [6] relates to urethane-anesthetized rats. The experiment in a line: Mean blood pressure in urethane-anesthetized rats. It is filed as in vivo, rat. The note with it: intraduodenal, up to 3 mg/kg (tamsulosin at the same dose range). The method, then:
Male Crl∶CD(SD) rats (7–8 weeks old) were anesthetized by intraperitoneal administration of urethane at a dose of 1.5 g/5 ml/kg. An arterial catheter (JMS cut-down tube; C3, JMS, Japan) was inserted into the common carotid artery to monitor blood pressure. After the abdomen was opened, another catheter (inner diameter, 0.9 mm; outer diameter, 1.5 mm; Shin-Etsu Polymer, Japan) was inserted into the duodenum and held in place with a suture thread. The abdomen was then cut along the median line and the urethra was ligated in the proximity of the pubic bone. […] Blood pressure and IUP were measured by a recorder (Graphtec, Japan) using a torsion-pressure amplifier (Nihon Kohden, Japan).
ONO-8430506 was dissolved in an aqueous solution containing 1.1 times the equivalent amount of NaOH. […] IUP and blood pressure were measured continuously during the 20-min after administration of either the inhibitor or tamsulosin. […] Postmortem IUP was measured until the lowest IUP value was reached and stabilized. The maximum percent decreases relative to the difference between baseline IUP and postmortem IUP was calculated to measure the change from baseline in IUP during the 20-min after drug administration.

For series [7], the system named is isolated rat urethra. In words: Contraction of isolated rat urethra (Magnus apparatus). The note with it: 100 nM to 30 µM added cumulatively. The method, then:
Krebs-Henseleit buffer (112 mM NaCl, 5.9 mM KCl, 2.0 mM CaCl2, 1.2 mM MgCl2, 1.2 mM NaH2PO4, 25.0 mM NaHCO3 and 11.5 mM glucose) was prepared and aerated with 95%O2+5%CO2. 8-week old male CD (SD) IGS rats (Charles River Laboratories Japan, Inc.) were decapitated and exsanguinated. The urethra was excised and immediately immersed in ice-cooled Krebs-Henseleit buffer. The excised urethra was cut open and flattened using ophthalmologic scissors. The opened and flattened urethra was cut along the circular muscle into ‘ring-shaped’ strips 2–3 mm in width×3–4 mm in length using a razor. One ‘ring-shaped’ urethral specimen was prepared for each male rat.
Each prepared urethral specimen was hung inside a 5-ml Magnus tube filled with Krebs-Henseleit buffer (30°C). A resting tension of approximately 0.5 g was applied to the specimen for 60 min until it was stabilized. Thereafter, contraction motions of the specimen were recorded on a linear recorder (Model WR3320, Graphtec Corp.) after being amplified by a torsion-pressure amplifier (Models AP-641G and AP-601G, Nihon Kohden Corporation) and a force displacement pick-up transducer (Model TB-611T, Nihon Kohden Corporation). […] Phenylephrine (10 nM to 1 mM, Sigma-Aldrich) or 18:3-LPA (100 nM to 30 µM) was cumulatively added to the medium and the contractile force of each urethral specimen was measured.

Counter-ions that a name gives are not always drawn.

As to `O=C1S/C(=C\c2ccc(OCc3cccc(B(O)O)c3)cc2)C(=O)N1Cc1ccc(F)cc1` [HA130], the results for the IC50 in series [1], in series [2] and in series [3] were 580 nM, 43 nM and 120 nM, respectively.

Consider `O=C(CCN1CCN(C(=O)OCc2cc(Cl)cc(Cl)c2)CC1)c1ccc2[nH]c(=O)oc2c1` [PF-8380], for which the “plasma LPA level after oral administration” value in series [4] is listed as “returned to the normal baseline level”.

In the case of `CCCCCCCCCCCCCC(=O)Nc1ccc(CP(=O)(O)O)cc1` [S32826], the results for the IC50 in series [1], in series [2] and in series [3] were > 10000 nM, 66 nM and 17 nM, respectively.

As for `CCOc1ccccc1OCCN[C@H](C)Cc1ccc(OC)c(S(N)(=O)=O)c1` [tamsulosin, tamsulosin hydrochloride], the “decrease in IUP” value in series [5] (0.3 mg/kg intraduodenal, maximum percent decrease during 20 min) was determined as 28%. In series [5] (intraduodenal), the “dose of maximum effect on IUP” value came out at 0.3 mg/kg and the “doses at which IUP decreased” value was “higher than 0.03 mg/kg”. The “effect on mean blood pressure (MBP)” value in series [6] is on record as “drastically decreased”.

For the molecule “linolenoyl-lysophosphatidic acid [18:3-LPA]”, in series [7], the “contractile effect in isolated rat urethra” value is given as “comparable to phenylephrine”.
